Experimental data published in US20110230481A2, “DERIVATIVES OF TETRABROMOBENZIMIDAZOLE, A PROCESS FOR THE PREPARATION THEREOF, A PHARMACEUTICAL COMPOSITION COMPRISING THE SAME, A METHOD OF USING THE SAME, A METHOD FOR MODULATING OR REGULATING SERINE/THREONINE KINASES, AND SERINE/THREONINE KINASES MODULATING AGENT” (SELVITA S.A., priority 2009, published 2011).

Key:
Assay in all cases: KINOMEscan Max
Type in all cases: binding
AAK1 = target: T1, AAK1 (Homo sapiens, UniProt Q2M2I8)
T1 construct: purchased Ambit Kinomescan (contract screening)
Protocol: (§1) Kinase panel profiling was performed at Ambit Kinomescan (http://www.ambitbio.com/technology/) using the “KINOMEscan™ Max” assay platform, a high-throughput method for screening small molecule compounds against large numbers of human kinases. KINOMEscan™ is based on a competition binding assay that quantitatively measures the ability of a compound to compete with an immobilized, active-site directed ligand. The assay is performed by combining three components: DNA-tagged kinase; immobilized ligand; and a test compound. The ability of the test compound to compete with the immobilized ligand is measured via quantitative PCR of the DNA tag. For a description of Ambit's assay protocol, see Fabian et al. A small molecule-kinase interaction map for clinical kinase inhibitors. Nat. Biotechnol. 23, 329-336 (2005).

PKN1 = target: T2, PKN1 (Homo sapiens, UniProt Q16512)
T2 construct: DNA tag (qPCR read-out)
Protocol: as §1

MEK2 = MEK2 (Homo sapiens, UniProt P36507)
Protocol: as §1

ERK1 = target: T3, ERK1 (Homo sapiens, UniProt P27361)
T3 construct: purchased Ambit Kinomescan (contract panel, KINOMEscan Max)
Protocol: as §1

ABL2 = ABL2 (Homo sapiens, UniProt P42684)
Protocol: as §1

BMPR1A = target: T4, BMPR1A (Homo sapiens, UniProt P36894)
T4 construct: DNA tag (qPCR label); purchased Ambit Kinomescan (contract screening)
Protocol: as §1

ADCK3 = ADCK3 (Homo sapiens, UniProt Q8NI60)
Protocol: as §1

GAK = target: T5, GAK (Homo sapiens, UniProt O14976)
T5 construct: purchased Ambit (KINOMEscan Max service)
Protocol: as §1

PDGFRB = PDGFRB (Homo sapiens, UniProt P09619)
Protocol: as §1

PDPK1 = target: T6, PDPK1 (Homo sapiens, UniProt O15530)
T6 construct: purchased Ambit (KINOMEscan Max service)
Protocol: as §1

TAOK2 = target: T7, TAOK2 (Homo sapiens, UniProt Q9UL54)
T7 construct: DNA tag (qPCR read-out)
Protocol: as §1

PFPK5(P.falciparum) = target: T8, PFPK5(P.falciparum) (Plasmodium falciparum, UniProt P61075)
T8 construct: DNA tag (qPCR read-out)
Protocol: as §1

PAK1 = target: T9, PAK1 (Homo sapiens, UniProt Q13153)
T9 construct: DNA tag (qPCR read-out)
Protocol: as §1

PIK3C2B = target: T10, PIK3C2B (Homo sapiens, UniProt O00750)
T10 construct: purchased Ambit Kinomescan (contract screening)
Protocol: as §1

YANK3 = YANK3 (Homo sapiens, UniProt Q86UX6)
Protocol: as §1

[1] = target: T11, RSK4(Kin.Dom.2-C-terminal) (Homo sapiens, UniProt Q9UK32); conditions: 1 μM
T11 construct: RSK4(Kin.Dom.2-C-terminal); DNA tag (qPCR read-out)
Protocol: as §1

FGFR2 = FGFR2 (Homo sapiens, UniProt P21802)
Protocol: as §1

EPHB1 = target: T12, EPHB1 (Homo sapiens, UniProt P54762)
T12 construct: purchased Ambit (KINOMEscan Max panel service)
Protocol: as §1

PHKG1 = PHKG1 (Homo sapiens, UniProt Q16816)
Protocol: as §1

DAPK1 = target: T13, DAPK1 (Homo sapiens, UniProt P53355)
T13 construct: DNA tag (qPCR read-out)
Protocol: as §1

DYRK1A = target: T14, DYRK1A (Homo sapiens, UniProt Q13627)
T14 construct: DNA tag (qPCR read-out); purchased Ambit Kinomescan
Protocol: as §1

CLK2 = target: T15, CLK2 (Homo sapiens, UniProt P49760)
T15 construct: DNA tag (qPCR read-out)
Protocol: as §1

LCK = target: T16, LCK (Homo sapiens, UniProt P06239)
T16 construct: purchased Ambit Kinomescan (contract panel)
Protocol: as §1

TRKA = target: T17, TRKA (Homo sapiens, UniProt P04629)
T17 construct: purchased Ambit Kinomescan (contract screening service)
Protocol: as §1

EPHA1 = target: T18, EPHA1 (Homo sapiens, UniProt P21709)
T18 construct: purchased Ambit (KINOMEscan Max panel service)
Protocol: as §1

BRK = target: T19, BRK (Homo sapiens, UniProt Q13882)
T19 construct: DNA tag (qPCR label); purchased Ambit Kinomescan (contract screening)
Protocol: as §1

MAP4K2 = MAP4K2 (Homo sapiens, UniProt Q12851)
Protocol: as §1

NEK4 = NEK4 (Homo sapiens, UniProt P51957)
Protocol: as §1

ULK1 = target: T20, ULK1 (Homo sapiens, UniProt O75385); conditions: 1 μM
T20 construct: DNA tag (qPCR read-out)
Protocol: as §1

p38-beta = p38-beta (Homo sapiens, UniProt Q15759)
Protocol: as §1

ZAP70 = target: T21, ZAP70 (Homo sapiens, UniProt P43403)
T21 construct: purchased Ambit Kinomescan (contract screening service)
Protocol: as §1

PFTAIRE2 = PFTAIRE2 (Homo sapiens, UniProt Q96Q40)
Protocol: as §1

NEK5 = NEK5 (Homo sapiens, UniProt Q6P3R8)
Protocol: as §1

LIMK2 = target: T22, LIMK2 (Homo sapiens, UniProt P53671)
T22 construct: purchased Ambit Kinomescan (contract screening)
Protocol: as §1

Chain of PDGFRB (P09619 33-1106): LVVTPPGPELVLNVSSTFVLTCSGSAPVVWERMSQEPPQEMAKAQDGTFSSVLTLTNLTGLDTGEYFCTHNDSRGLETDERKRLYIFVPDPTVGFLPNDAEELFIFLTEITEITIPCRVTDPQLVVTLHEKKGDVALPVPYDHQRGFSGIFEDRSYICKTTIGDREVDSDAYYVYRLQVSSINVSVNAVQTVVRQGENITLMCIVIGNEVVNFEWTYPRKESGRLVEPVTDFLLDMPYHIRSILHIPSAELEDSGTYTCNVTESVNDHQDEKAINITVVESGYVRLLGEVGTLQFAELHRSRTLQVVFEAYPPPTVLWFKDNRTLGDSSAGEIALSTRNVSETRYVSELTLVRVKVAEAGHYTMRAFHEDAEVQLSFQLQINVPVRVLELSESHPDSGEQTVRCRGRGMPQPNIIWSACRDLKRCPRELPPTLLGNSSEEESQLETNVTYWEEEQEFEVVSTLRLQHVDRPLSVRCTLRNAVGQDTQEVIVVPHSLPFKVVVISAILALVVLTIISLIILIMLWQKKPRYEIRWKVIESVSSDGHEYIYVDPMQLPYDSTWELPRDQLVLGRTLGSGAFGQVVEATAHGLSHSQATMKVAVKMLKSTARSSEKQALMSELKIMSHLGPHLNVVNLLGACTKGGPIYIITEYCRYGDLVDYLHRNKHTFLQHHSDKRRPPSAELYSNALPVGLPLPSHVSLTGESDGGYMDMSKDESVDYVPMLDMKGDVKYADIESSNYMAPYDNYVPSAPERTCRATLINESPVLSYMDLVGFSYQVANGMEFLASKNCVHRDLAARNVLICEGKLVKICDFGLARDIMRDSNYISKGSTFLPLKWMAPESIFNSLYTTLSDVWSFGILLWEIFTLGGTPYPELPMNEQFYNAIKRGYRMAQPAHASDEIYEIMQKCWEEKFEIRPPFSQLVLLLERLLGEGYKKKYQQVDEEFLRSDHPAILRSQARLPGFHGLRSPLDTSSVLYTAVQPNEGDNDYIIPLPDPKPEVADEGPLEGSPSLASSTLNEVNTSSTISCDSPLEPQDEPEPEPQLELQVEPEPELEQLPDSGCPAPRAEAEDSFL
Chain of FGFR2 (P21802 22-821): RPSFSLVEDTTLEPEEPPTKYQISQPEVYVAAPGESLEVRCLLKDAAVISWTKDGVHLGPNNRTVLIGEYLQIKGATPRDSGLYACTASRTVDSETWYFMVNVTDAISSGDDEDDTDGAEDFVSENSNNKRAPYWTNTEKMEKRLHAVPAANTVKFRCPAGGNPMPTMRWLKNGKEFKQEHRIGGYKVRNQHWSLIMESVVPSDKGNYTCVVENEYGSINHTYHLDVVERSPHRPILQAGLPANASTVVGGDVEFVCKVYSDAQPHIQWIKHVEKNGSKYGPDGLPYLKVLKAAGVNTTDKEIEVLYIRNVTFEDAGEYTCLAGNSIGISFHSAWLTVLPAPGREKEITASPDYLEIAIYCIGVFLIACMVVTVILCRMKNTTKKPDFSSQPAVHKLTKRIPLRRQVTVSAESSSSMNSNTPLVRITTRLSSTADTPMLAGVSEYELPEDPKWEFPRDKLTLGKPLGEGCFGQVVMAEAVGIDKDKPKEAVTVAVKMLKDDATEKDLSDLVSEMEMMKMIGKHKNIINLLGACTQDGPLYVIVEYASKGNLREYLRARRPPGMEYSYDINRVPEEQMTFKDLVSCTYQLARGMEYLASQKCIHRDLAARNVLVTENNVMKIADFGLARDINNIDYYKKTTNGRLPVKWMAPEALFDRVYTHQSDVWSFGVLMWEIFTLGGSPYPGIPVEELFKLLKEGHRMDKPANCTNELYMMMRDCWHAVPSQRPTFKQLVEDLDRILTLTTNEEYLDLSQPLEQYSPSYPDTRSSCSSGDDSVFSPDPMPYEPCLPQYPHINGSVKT
Chain of ABL2 (P42684 whole entry): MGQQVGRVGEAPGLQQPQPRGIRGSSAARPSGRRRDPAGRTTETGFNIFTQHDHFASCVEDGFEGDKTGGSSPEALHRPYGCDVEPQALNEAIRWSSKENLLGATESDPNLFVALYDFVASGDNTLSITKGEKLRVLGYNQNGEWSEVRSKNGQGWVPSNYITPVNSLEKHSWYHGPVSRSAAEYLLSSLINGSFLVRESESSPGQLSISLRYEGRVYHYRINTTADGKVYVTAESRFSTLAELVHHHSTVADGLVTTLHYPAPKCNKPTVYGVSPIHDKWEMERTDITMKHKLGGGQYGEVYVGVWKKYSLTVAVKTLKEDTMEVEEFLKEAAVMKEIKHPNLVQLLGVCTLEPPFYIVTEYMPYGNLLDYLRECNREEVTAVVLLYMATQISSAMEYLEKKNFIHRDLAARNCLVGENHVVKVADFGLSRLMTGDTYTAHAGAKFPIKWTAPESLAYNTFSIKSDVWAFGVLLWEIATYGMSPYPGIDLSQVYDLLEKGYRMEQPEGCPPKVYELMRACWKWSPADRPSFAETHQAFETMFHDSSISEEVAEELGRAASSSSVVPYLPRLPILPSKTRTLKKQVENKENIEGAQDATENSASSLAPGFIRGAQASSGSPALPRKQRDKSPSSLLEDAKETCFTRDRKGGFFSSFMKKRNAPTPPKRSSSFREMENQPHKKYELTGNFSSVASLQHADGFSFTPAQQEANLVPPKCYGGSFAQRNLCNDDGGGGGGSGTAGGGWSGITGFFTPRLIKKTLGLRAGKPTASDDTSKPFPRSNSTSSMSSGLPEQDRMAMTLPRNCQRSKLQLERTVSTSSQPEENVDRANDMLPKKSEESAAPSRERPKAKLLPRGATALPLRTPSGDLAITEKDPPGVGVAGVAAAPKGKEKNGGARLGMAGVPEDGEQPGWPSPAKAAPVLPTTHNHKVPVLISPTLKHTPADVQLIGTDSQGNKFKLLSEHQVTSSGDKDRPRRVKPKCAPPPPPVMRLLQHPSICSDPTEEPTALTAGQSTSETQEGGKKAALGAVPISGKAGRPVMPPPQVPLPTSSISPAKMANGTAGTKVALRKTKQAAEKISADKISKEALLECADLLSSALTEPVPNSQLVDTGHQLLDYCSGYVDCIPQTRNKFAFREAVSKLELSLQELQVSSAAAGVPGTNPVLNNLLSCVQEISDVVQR
Chain of ADCK3 (Q8NI60 163-647): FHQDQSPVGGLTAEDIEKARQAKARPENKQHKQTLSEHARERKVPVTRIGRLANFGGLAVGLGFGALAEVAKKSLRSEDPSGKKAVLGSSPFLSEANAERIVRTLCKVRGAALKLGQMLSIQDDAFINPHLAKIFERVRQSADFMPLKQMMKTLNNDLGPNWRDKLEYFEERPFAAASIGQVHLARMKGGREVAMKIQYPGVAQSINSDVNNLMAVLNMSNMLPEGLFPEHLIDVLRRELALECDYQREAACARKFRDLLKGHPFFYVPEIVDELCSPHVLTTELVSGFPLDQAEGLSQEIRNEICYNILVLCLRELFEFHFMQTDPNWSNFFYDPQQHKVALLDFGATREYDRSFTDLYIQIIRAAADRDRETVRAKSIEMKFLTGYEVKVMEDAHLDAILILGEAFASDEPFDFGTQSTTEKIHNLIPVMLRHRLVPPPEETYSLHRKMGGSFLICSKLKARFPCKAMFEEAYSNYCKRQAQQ
Chain of NEK5 (Q6P3R8 whole entry): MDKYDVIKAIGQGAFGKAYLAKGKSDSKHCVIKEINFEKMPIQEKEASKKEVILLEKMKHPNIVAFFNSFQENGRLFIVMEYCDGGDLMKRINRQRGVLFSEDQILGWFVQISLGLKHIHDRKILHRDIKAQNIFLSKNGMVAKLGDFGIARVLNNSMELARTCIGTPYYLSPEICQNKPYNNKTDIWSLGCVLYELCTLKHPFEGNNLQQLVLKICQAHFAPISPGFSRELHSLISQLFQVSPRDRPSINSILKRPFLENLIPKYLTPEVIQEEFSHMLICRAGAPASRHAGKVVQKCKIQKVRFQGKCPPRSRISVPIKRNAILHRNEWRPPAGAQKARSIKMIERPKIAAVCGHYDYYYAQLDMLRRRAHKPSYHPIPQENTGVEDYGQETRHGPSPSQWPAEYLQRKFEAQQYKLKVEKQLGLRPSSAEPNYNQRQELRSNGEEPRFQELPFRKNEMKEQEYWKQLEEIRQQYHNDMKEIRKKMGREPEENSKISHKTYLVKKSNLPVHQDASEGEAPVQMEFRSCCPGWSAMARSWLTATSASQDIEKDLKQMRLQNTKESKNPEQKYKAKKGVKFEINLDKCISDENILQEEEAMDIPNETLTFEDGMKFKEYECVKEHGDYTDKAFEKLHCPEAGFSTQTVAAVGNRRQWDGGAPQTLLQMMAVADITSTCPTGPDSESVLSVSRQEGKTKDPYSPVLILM
T3 sequence (P27361 whole entry): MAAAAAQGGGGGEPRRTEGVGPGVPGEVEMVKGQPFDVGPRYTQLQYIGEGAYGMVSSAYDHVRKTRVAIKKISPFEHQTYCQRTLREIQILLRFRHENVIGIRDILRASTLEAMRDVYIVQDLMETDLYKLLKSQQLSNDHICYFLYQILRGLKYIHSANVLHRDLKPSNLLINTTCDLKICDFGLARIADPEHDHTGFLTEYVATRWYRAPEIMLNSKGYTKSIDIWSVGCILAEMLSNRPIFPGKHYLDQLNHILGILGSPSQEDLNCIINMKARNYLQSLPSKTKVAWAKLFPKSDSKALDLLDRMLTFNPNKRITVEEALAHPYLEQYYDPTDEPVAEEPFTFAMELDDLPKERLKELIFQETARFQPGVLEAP
T11 sequence (Q9UK32 426-683 limits assumed): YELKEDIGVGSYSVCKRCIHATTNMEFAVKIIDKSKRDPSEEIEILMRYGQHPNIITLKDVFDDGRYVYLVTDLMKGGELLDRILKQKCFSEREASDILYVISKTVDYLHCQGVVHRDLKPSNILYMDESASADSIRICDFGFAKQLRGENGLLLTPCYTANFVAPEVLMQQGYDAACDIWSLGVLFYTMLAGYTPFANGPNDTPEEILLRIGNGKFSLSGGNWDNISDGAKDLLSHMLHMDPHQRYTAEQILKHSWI

NCCCNc1nc2c(Br)c(Br)c(Br)c(Br)c2[nH]1 [Compound 11, N-(3-aminopropyl)-4,5,6,7-tetrabromo-1H-benzo[d]imidazol-2-amine]
remaining binding at 1 µM (AAK1): 97%
remaining binding at 1 µM (PKN1): 100%
remaining binding at 1 µM (MEK2): 100%
remaining binding at 1 µM (ERK1): 100%
remaining binding at 1 µM (ABL2): 100%
remaining binding at 1 µM (BMPR1A): 100%
remaining binding at 1 µM (ADCK3): 76%
remaining binding at 1 µM (GAK): 81%
remaining binding at 1 µM (PDGFRB): 80%
remaining binding at 1 µM (PDPK1): 84%
remaining binding at 1 µM (TAOK2): 100%
remaining binding at 1 µM (PFPK5(P.falciparum)): 100%
remaining binding at 1 µM (PAK1): 91%
remaining binding at 1 µM (PIK3C2B): 96%
remaining binding at 1 µM (YANK3): 93%
% binding [1]: 100%
remaining binding at 1 µM (FGFR2): 77%
remaining binding at 1 µM (EPHB1): 100%
remaining binding at 1 µM (PHKG1): 94%
remaining binding at 1 µM (DAPK1): 90%
remaining binding at 1 µM (DYRK1A): 2.6%
remaining binding at 1 µM (CLK2): 31%
remaining binding at 1 µM (LCK): 100%
remaining binding at 1 µM (TRKA): 100%
remaining binding at 1 µM (EPHA1): 100%
remaining binding at 1 µM (BRK): 100%
remaining binding at 1 µM (MAP4K2): 78%
remaining binding at 1 µM (NEK4): 98%
% binding (ULK1): 30%
remaining binding at 1 µM (p38-beta): 95%
remaining binding at 1 µM (ZAP70): 100%
remaining binding at 1 µM (PFTAIRE2): 73%
remaining binding at 1 µM (NEK5): 100%
remaining binding at 1 µM (LIMK2): 96%
